Results published in ChEMBL document CHEMBL1201862, “PubChem BioAssay data set” (2004).
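Growth conditions: 96-well plates. Treatment: test compound, 48 hours, 5 concentrations. Analysis: linear interpolation between bracketing concentrations; unreached endpoints set to highest concentration. Abbreviation: GI50, concentration required for 50% inhibition of growth.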 Activity calls are given as the source filed them. Cut-off read from the data, not from the text of the source: active = GI50 up to about 1.1 µM and inactive = higher.

Assays:
Experiment in all cases: NCI tumour cell line growth inhibition, 48 h
MDA-MB-231 = tested on: MDA-MB-231
MDA-MB-435 = tested on: MDA-MB-435
DLD-1 = tested on: DLD-1
M19-MEL = tested on: M19-MEL
SNB-78 = tested on: SNB-78
DMS-273 = tested on: DMS-273
XF498 = tested on: XF498
HOP-18 = tested on: HOP-18

| SMILES | GI50 (MDA-MB-231) | GI50 (MDA-MB-435) | further results |
| --- | --- | --- | --- |
| O=C(O)Cc1cccc2c1OC(c1ccccc1)C(Cl)(C(=O)c1ccccc1)C2=O (stereo not given) | 18.7 µM (inactive) | 15.8 µM (inactive) |  |
| COC(=O)C(Cc1c[nH]c2ccccc12)NC1=Nc2ccncc2S(=O)(=O)N1c1ccccc1 (stereo not given) | 52.1 µM (inactive) | 32.1 µM (inactive) |  |
| O=C(CC(=O)c1ccccc1)CC(O)(c1ccccc1)c1ccccc1 |  |  | GI50 (DLD-1): 4.18 µM (inactive); GI50 (M19-MEL): 3.12 µM (inactive); GI50 (SNB-78): 21 µM (inactive) |
| O=NN1CCCS1(=O)=O | > 100 µM (inactive) |  |  |
| CO/C=C(/C(=O)OC)c1ccccc1Oc1c(F)c(F)c(F)c(F)c1F | 29.5 µM (inactive) | 29.7 µM (inactive) |  |
| O=C(N/N=C\c1ccc2ccccc2c1)Nc1ccc([N+](=O)[O-])cc1 | 32.2 µM (inactive) | 31.1 µM (inactive) |  |
| COC(=O)C1=C(OC(=O)/C(=C/c2ccccc2)c2ccc(Cl)cc2Cl)C(C(=O)OC)[C@@]2(O)[C@@H](C(=O)OC)[C@H](C)C[C@@H]1[C@@H]2C(=O)OC (stereo not given in full) | > 100 µM (inactive) | > 100 µM (inactive) |  |
| CC1CN(c2cc3c(cc2F)c(=O)c(C(=O)O)cn3-c2ccc(F)cn2)CC(C)N1 (stereo not given) | > 100 µM (inactive) | > 100 µM (inactive) |  |
| CCOC(=O)C1C(=O)CC(O)(c2ccccc2)C(C(=O)OCC)C1c1ccc(OC)cc1 (stereo not given) | 22.2 µM (inactive) | 3.24 µM (inactive) |  |
| COc1ccccc1/N=N/C(=N/NC(=O)c1ccc(C)cc1)c1ccc(N(CCC#N)CCC#N)cc1OC | 24.9 µM (inactive) | 29.1 µM (inactive) |  |
| CC1(C)[C@@H](Cn2cnc3c(O)nc(N)nc32)CC[C@@]1(C)CO | > 100 µM (inactive) | > 100 µM (inactive) |  |
| CC(C)Cc1cccc(C(C)C)c1NC(=O)CCC(=O)N/N=C1\C(=N/NC(=O)CCC(=O)Nc2c(C(C)C)cccc2C(C)C)C(c2ccc3c(c2)OCO3)Oc2ccccc21 (stereo not given) |  |  | GI50 (DLD-1): 40.8 µM (inactive); GI50 (DMS-273): 76.9 µM (inactive); GI50 (M19-MEL): > 100 µM (inactive); GI50 (SNB-78): 94 µM (inactive); GI50 (XF498): > 100 µM (inactive) |
| Nc1nc(O)c2ncn([C@H]3CC[C@@H](CO)O3)c2n1 |  | > 100 µM (inactive) |  |
| CC(C)(C)OC(=O)NCCc1ccc(N)cc1 | > 100 µM (inactive) | > 100 µM (inactive) |  |
| COC1=CC(=O)c2c(O)ccc(O)c2C1=O | 3.12 µM (inactive) | 0.659 µM (active) |  |
| Cc1ccc(S(=O)(=O)N/N=C/C(=C/c2ccc(Cl)cc2)CC(/C=N/NS(=O)(=O)c2ccc(C)cc2)=C\c2ccc(Cl)cc2)cc1 | 10.2 µM (inactive) | 3.72 µM (inactive) |  |
| O=C1c2c(O)ccc(O)c2C(=O)c2c(NCCNC(=O)C(O)C(O)C(O)C(O)CO)ccc(NCCNC(=O)C(O)C(O)C(O)C(O)CO)c21 (stereo not given) | 0.0467 µM (active) | 0.355 µM (active) |  |
| C=C(C)COC1CCCCO1 (stereo not given) | > 100 µM (inactive) | > 100 µM (inactive) |  |
| CC(=O)N1NC(c2ccccc2)=CC(=O)/C1=C/C(=O)c1ccccc1 | > 100 µM (inactive) | 20.2 µM (inactive) |  |
| Nc1ccc(S(=O)(=O)C23CC4CC(CC(C4)C2)C3)cc1 | > 100 µM (inactive) | 72.9 µM (inactive) |  |
| N#Cc1c(NC(=O)C(F)(F)F)sc2c3c(=O)c4ccccc4c(=O)c=3oc3ccccc3c12 | 24.3 µM (inactive) | 17.1 µM (inactive) |  |
| O=C1c2ccccc2CCCCCCCCCCC12OCCCO2 |  |  | GI50 (DLD-1): 60.4 µM (inactive); GI50 (DMS-273): 70.5 µM (inactive); GI50 (HOP-18): 47.9 µM (inactive); GI50 (M19-MEL): 36.6 µM (inactive); GI50 (SNB-78): 22.6 µM (inactive) |
| CC(C)(O)/C1=C/C=C/CCCCCCCCCC1 | > 100 µM (inactive) | > 100 µM (inactive) |  |
| COc1ccc(NC(=S)N/N=C/c2cccc(C)n2)cc1 | 3.9 µM (inactive) | 1.04 µM (active) |  |
| Cn1ccc(C(=O)NCCOCCNC(=O)c2ccn(C)c(=O)c2O)c(O)c1=O | > 100 µM (inactive) | > 100 µM (inactive) |  |

| SMILES | GI50 (MDA-MB-231) | GI50 (MDA-MB-435) | further results |
| --- | --- | --- | --- |
| CC1=C/C(O)CC(=O)Cc2nc(co2)C(=O)N2CCC=C2C(=O)OC(C(C)C)C(C)/C=C\C(=O)NC/C=C\1 (stereo not given) | 23.9 µM (inactive) | 24.8 µM (inactive) |  |
| COC(=O)C(C(=O)C(=O)Nc1c(C)cccc1C(C)(C)C)c1nc2ccc(Cl)cc2nc1O (stereo not given) | > 100 µM (inactive) | > 100 µM (inactive) |  |
| C/N=c1\ss/c(=N\C(=S)N(C)C)n1-c1ccccc1 |  |  | GI50 (DLD-1): > 100 µM (inactive); GI50 (DMS-273): > 100 µM (inactive); GI50 (HOP-18): > 100 µM (inactive); GI50 (M19-MEL): > 100 µM (inactive); GI50 (SNB-78): 46 µM (inactive) |
| COc1ccc(-c2cc(O)c3cc(OC)c(OC)cc3n2)cc1OC | > 100 µM (inactive) | > 100 µM (inactive) |  |
| COC(=O)/C=C\c1ccc2c(c1)CC1(C2)Cc2ccc(/C=C/C(=O)OC)cc2C1 (stereo not given) | 17.2 µM (inactive) | > 31.6 µM (inactive) |  |
| CSc1nc(C)c(CCOC(C)=O)c(Cl)n1 | > 100 µM (inactive) | > 100 µM (inactive) |  |
| COc1cccc(C2c3cc4c(cc3OC(C)(O)C2C)OCO4)c1O (stereo not given) | 0.897 µM (active) | 1.42 µM (inactive) |  |
| CC(C)(C)OC(=O)C1=C(C(=O)OC(C)(C)C)SC2(S1)C(C(=O)OC(C)(C)C)=C(C(=O)OC(C)(C)C)Sc1c2ssc1=O | 83.8 µM (inactive) | 27.5 µM (inactive) |  |
| CN1CCN(CCCN2c3ccccc3Sc3ccc(C(F)(F)F)cc32)CC1 |  | 2.92 µM (inactive) |  |
| Cc1nc2ccccc2n1Cc1ccc(NC(=S)Nc2ccccc2)cc1 | 36.4 µM (inactive) | 46.9 µM (inactive) |  |
| COc1ccccc1Nc1nc(NNC(=O)Cc2ccccc2)nc(NNC(=O)c2ccncc2)n1 | > 10 µM (inactive) |  |  |
| CC(=O)OC(OC(C)=O)c1ccc2ccc3cccc4ccc1c2c34 | 10.1 µM (inactive) | 18.9 µM (inactive) |  |
| CC(C)(C)OC(=O)CN1CCN(CC(=O)N2CCN(C(=O)OCc3ccccc3)CC2)CCN(CC(=O)OC(C)(C)C)CCN(CC(=O)N2CCN(C(=O)OCc3ccccc3)CC2)CC1 | 1.64 µM (inactive) | 2.13 µM (inactive) |  |
| C=C1C(=O)O[C@H]2C[C@@]3(COC(C)=O)C=COC=C(COC(=O)C(C)C)C3CC12 (stereo not given in full) | 61.9 µM (inactive) | 73.5 µM (inactive) |  |
| O=C(O)C12CC3(C(=O)O)CC(C(=O)O)(CC(C(=O)O)(C1)C3=O)C2=O | > 100 µM (inactive) | > 100 µM (inactive) |  |
| COc1ccc(/C=C2/SC(c3ccc(Cl)cc3)N(NC(=O)CCCCCCCCC(=O)NN3C(=O)/C(=C\c4ccc(OC)c(OC)c4)SC3c3ccc(Cl)cc3)C2=O)cc1OC (stereo not given) | > 100 µM (inactive) | 42 µM (inactive) |  |
| CCCNC(=O)c1cc(NC(=O)c2cc(NC(=O)CCS(=O)(=O)OC)cn2C)cn1C | 33.8 µM (inactive) | 19.1 µM (inactive) |  |
| CCCn1c(=O)c2ccccc2[n+]2c(-c3ccc([N+](=O)[O-])cc3)csc12 | 33.7 µM (inactive) | 38.6 µM (inactive) |  |
| Cc1nc2sc3cccc(Cl)c3n2c(=O)c1/N=N/c1ccc(Cl)cc1 | 71 µM (inactive) | > 100 µM (inactive) |  |
| COc1ccc(-c2cc(=O)c3c(O)c(OC)c(OC)c(OC)c3o2)cc1OC [5-DEMETHYLNOBILETIN] | > 100 µM (inactive) |  |  |
| Cc1nnc(N)nc1C/C=C/C(Sc1ccc(Cl)cc1)c1ccccc1 (stereo not given) | 6.76 µM (inactive) | 3.15 µM (inactive) |  |
| CC[C@@H](C)[C@H](NC(=O)[C@H](Cc1ccccc1)NCC(F)(F)F)C(=O)OC(C)(C)C | > 100 µM (inactive) | > 100 µM (inactive) |  |
| Cc1ccc(C(=O)/C=C2/Nc3ccccc3NC2=O)c(C)c1 | 14.3 µM (inactive) | 30.8 µM (inactive) |  |
| CC1=C(C(=O)NCCc2ccccc2)CC(C(=O)NCCc2ccccc2)=C(C)N1 | > 100 µM (inactive) | > 100 µM (inactive) |  |
| CC(CC(=O)O)(CC(=O)O)C(=O)O | > 100 µM (inactive) | > 100 µM (inactive) |  |
